# Source: patent US7118895B2, “Process for producing aglycon by using diglycosidase and flavor-improved food containing the aglycon and converting agent to be used in the process” (Amano Enzyme Inc., priority 2000, dated 2006)
# Tested on: Crude diglycosidase
# Experiment: Examination of pH in the conversion into isoflavone aglycons by diglycosidase using soybean materials
# Assay type: biochemical, Penicillium multicolor IAM7153
# Design: Decomposition efficiency of genistin family in soymilk / Decomposition efficiency of genistin family in defatted soybean / Decomposition efficiency of daidzin family in defatted soybean: concentration or dose not given beside the values
# Details: for Decomposition efficiency of genistin family in roasted soy flour: 55° C.
# How it was run: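 Suspensions of 50 mg roasted soy flour, soymilk, defatted soybean or concentrated soy protein were brought to pH 2 to 11 with HCl or NaOH and reacted at 55° C with crude diglycosidase (enzyme solution at 1.88 AU/mL, same pH). Ethanol-stopped samples at 0, 1, 3 and 6 h were analysed by HPLC.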
# [1] = pH4.8, heat treatment of enzyme: no, reaction time 0 h
# [2] = pH4.8, heat treatment of enzyme: no, reaction time 1 h
# [3] = pH4.8, heat treatment of enzyme: no, reaction time 3 h
# [4] = pH4.8, heat treatment of enzyme: no, reaction time 6 h
# [5] = pH4.8, heat treatment of enzyme: yes, reaction time 6 h
# [6] = pH6.6, heat treatment of enzyme: no, reaction time 0 h
# [7] = pH6.6, heat treatment of enzyme: no, reaction time 1 h
# [8] = pH6.6, heat treatment of enzyme: no, reaction time 3 h
# [9] = pH6.6, heat treatment of enzyme: no, reaction time 6 h
# [10] = pH6.6, heat treatment of enzyme: yes, reaction time 6 h
smiles,measurement,setting,value
"O=C(O)CC(=O)OC[C@H]1O[C@@H](Oc2cc(O)c3c(=O)c(-c4ccc(O)cc4)coc3c2)[C@H](O)[C@@H](O)[C@@H]1O [malonylgenistin, 6″-O-malonylgenistin]",Decomposition efficiency of genistin family in concentrated soybean protein,"pH1.6, heat treatment of enzyme: no, reaction time 0 h",not detected
same,Decomposition efficiency of genistin family in concentrated soybean protein,"pH1.6, heat treatment of enzyme: no, reaction time 1 h",not detected
same,Decomposition efficiency of genistin family in concentrated soybean protein,"pH1.6, heat treatment of enzyme: no, reaction time 3 h",not detected
same,Decomposition efficiency of genistin family in concentrated soybean protein,"pH1.6, heat treatment of enzyme: no, reaction time 6 h",not detected
same,Decomposition efficiency of genistin family in concentrated soybean protein,"pH1.6, heat treatment of enzyme: yes, reaction time 6 h",not detected
same,Decomposition efficiency of genistin family in roasted soy flour,"pH2, heat treatment of enzyme no, reaction time 0 h",not detected
same,Decomposition efficiency of genistin family in roasted soy flour,"pH2, heat treatment of enzyme no, reaction time 1 h",not detected
same,Decomposition efficiency of genistin family in roasted soy flour,"pH2, heat treatment of enzyme no, reaction time 3 h",not detected
same,Decomposition efficiency of genistin family in roasted soy flour,"pH2, heat treatment of enzyme no, reaction time 6 h",not detected
same,Decomposition efficiency of genistin family in roasted soy flour,"pH2, heat treatment of enzyme yes, reaction time 6 h",not detected
same,Decomposition efficiency of genistin family in soymilk,"pH2.3, heat treatment of enzyme: no, reaction time 0 h",58.2%
same,Decomposition efficiency of genistin family in soymilk,"pH2.3, heat treatment of enzyme: no, reaction time 1 h",57.5%
same,Decomposition efficiency of genistin family in soymilk,"pH2.3, heat treatment of enzyme: no, reaction time 3 h",54.1%
same,Decomposition efficiency of genistin family in soymilk,"pH2.3, heat treatment of enzyme: no, reaction time 6 h",52.1%
same,Decomposition efficiency of genistin family in soymilk,"pH2.3, heat treatment of enzyme: yes, reaction time 6 h",54.3%
same,Decomposition efficiency of genistin family in defatted soybean,"pH2.6, heat treatment of enzyme: no, reaction time 0 h",43.8%
same,Decomposition efficiency of genistin family in defatted soybean,"pH2.6, heat treatment of enzyme: no, reaction time 1 h",44.4%
same,Decomposition efficiency of genistin family in defatted soybean,"pH2.6, heat treatment of enzyme: no, reaction time 3 h",45.4%
same,Decomposition efficiency of genistin family in defatted soybean,"pH2.6, heat treatment of enzyme: no, reaction time 6 h",43.5%
same,Decomposition efficiency of genistin family in defatted soybean,"pH2.6, heat treatment of enzyme: yes, reaction time 6 h",42.0%
same,Decomposition efficiency of genistin family in concentrated soybean protein,"pH2.7, heat treatment of enzyme: no, reaction time 0 h",not detected
same,Decomposition efficiency of genistin family in concentrated soybean protein,"pH2.7, heat treatment of enzyme: no, reaction time 1 h",not detected
same,Decomposition efficiency of genistin family in concentrated soybean protein,"pH2.7, heat treatment of enzyme: no, reaction time 3 h",not detected
same,Decomposition efficiency of genistin family in concentrated soybean protein,"pH2.7, heat treatment of enzyme: no, reaction time 6 h",not detected
same,Decomposition efficiency of genistin family in concentrated soybean protein,"pH2.7, heat treatment of enzyme: yes, reaction time 6 h",not detected
same,Decomposition efficiency of genistin family in roasted soy flour,"pH3, heat treatment of enzyme no, reaction time 0 h",not detected
same,Decomposition efficiency of genistin family in roasted soy flour,"pH3, heat treatment of enzyme no, reaction time 1 h",not detected
same,Decomposition efficiency of genistin family in roasted soy flour,"pH3, heat treatment of enzyme no, reaction time 3 h",not detected
same,Decomposition efficiency of genistin family in roasted soy flour,"pH3, heat treatment of enzyme no, reaction time 6 h",not detected
same,Decomposition efficiency of genistin family in roasted soy flour,"pH3, heat treatment of enzyme yes, reaction time 6 h",not detected
same,Decomposition efficiency of genistin family in defatted soybean,"pH3.4, heat treatment of enzyme: no, reaction time 0 h",43.8%
same,Decomposition efficiency of genistin family in defatted soybean,"pH3.4, heat treatment of enzyme: no, reaction time 1 h",41.6%
same,Decomposition efficiency of genistin family in defatted soybean,"pH3.4, heat treatment of enzyme: no, reaction time 3 h",36.4%
same,Decomposition efficiency of genistin family in defatted soybean,"pH3.4, heat treatment of enzyme: no, reaction time 6 h",30.4%
same,Decomposition efficiency of genistin family in defatted soybean,"pH3.4, heat treatment of enzyme: yes, reaction time 6 h",39.8%
same,Decomposition efficiency of genistin family in soymilk,"pH3.5, heat treatment of enzyme: no, reaction time 0 h",58.2%
same,Decomposition efficiency of genistin family in soymilk,"pH3.5, heat treatment of enzyme: no, reaction time 1 h",27.9%
same,Decomposition efficiency of genistin family in soymilk,"pH3.5, heat treatment of enzyme: no, reaction time 3 h",7.5%
same,Decomposition efficiency of genistin family in soymilk,"pH3.5, heat treatment of enzyme: no, reaction time 6 h",2.7%
same,Decomposition efficiency of genistin family in soymilk,"pH3.5, heat treatment of enzyme: yes, reaction time 6 h",52.7%
same,Decomposition efficiency of genistin family in concentrated soybean protein,"pH3.7, heat treatment of enzyme: no, reaction time 0 h",not detected
same,Decomposition efficiency of genistin family in concentrated soybean protein,"pH3.7, heat treatment of enzyme: no, reaction time 1 h",not detected
same,Decomposition efficiency of genistin family in concentrated soybean protein,"pH3.7, heat treatment of enzyme: no, reaction time 3 h",not detected
same,Decomposition efficiency of genistin family in concentrated soybean protein,"pH3.7, heat treatment of enzyme: no, reaction time 6 h",not detected
same,Decomposition efficiency of genistin family in concentrated soybean protein,"pH3.7, heat treatment of enzyme: yes, reaction time 6 h",not detected
same,Decomposition efficiency of genistin family in roasted soy flour,"pH4, heat treatment of enzyme no, reaction time 0 h",not detected
same,Decomposition efficiency of genistin family in roasted soy flour,"pH4, heat treatment of enzyme no, reaction time 1 h",not detected
same,Decomposition efficiency of genistin family in roasted soy flour,"pH4, heat treatment of enzyme no, reaction time 3 h",not detected
same,Decomposition efficiency of genistin family in roasted soy flour,"pH4, heat treatment of enzyme no, reaction time 6 h",not detected
same,Decomposition efficiency of genistin family in roasted soy flour,"pH4, heat treatment of enzyme yes, reaction time 6 h",not detected
same,Decomposition efficiency of genistin family in defatted soybean,[1],43.2%
same,Decomposition efficiency of genistin family in soymilk,[1],58.6%
same,Decomposition efficiency of genistin family in defatted soybean,[2],42.8%
same,Decomposition efficiency of genistin family in soymilk,[2],41.0%
same,Decomposition efficiency of genistin family in defatted soybean,[3],37.5%
same,Decomposition efficiency of genistin family in soymilk,[3],23.9%
same,Decomposition efficiency of genistin family in defatted soybean,[4],31.1%
same,Decomposition efficiency of genistin family in soymilk,[4],11.3%
same,Decomposition efficiency of genistin family in defatted soybean,[5],41.7%
same,Decomposition efficiency of genistin family in soymilk,[5],51.9%
same,Decomposition efficiency of genistin family in roasted soy flour,"pH5, heat treatment of enzyme no, reaction time 0 h",not detected
same,Decomposition efficiency of genistin family in roasted soy flour,"pH5, heat treatment of enzyme no, reaction time 1 h",not detected
same,Decomposition efficiency of genistin family in roasted soy flour,"pH5, heat treatment of enzyme no, reaction time 3 h",not detected
same,Decomposition efficiency of genistin family in roasted soy flour,"pH5, heat treatment of enzyme no, reaction time 6 h",not detected
same,Decomposition efficiency of genistin family in roasted soy flour,"pH5, heat treatment of enzyme yes, reaction time 6 h",not detected
same,Decomposition efficiency of genistin family in concentrated soybean protein,"pH5.1, heat treatment of enzyme: no, reaction time 0 h",not detected
same,Decomposition efficiency of genistin family in concentrated soybean protein,"pH5.1, heat treatment of enzyme: no, reaction time 1 h",not detected
same,Decomposition efficiency of genistin family in concentrated soybean protein,"pH5.1, heat treatment of enzyme: no, reaction time 3 h",not detected
same,Decomposition efficiency of genistin family in concentrated soybean protein,"pH5.1, heat treatment of enzyme: no, reaction time 6 h",not detected
same,Decomposition efficiency of genistin family in concentrated soybean protein,"pH5.1, heat treatment of enzyme: yes, reaction time 6 h",not detected
same,Decomposition efficiency of genistin family in defatted soybean,"pH5.4, heat treatment of enzyme: no, reaction time 0 h",43.2%
same,Decomposition efficiency of genistin family in defatted soybean,"pH5.4, heat treatment of enzyme: no, reaction time 1 h",48.0%
same,Decomposition efficiency of genistin family in defatted soybean,"pH5.4, heat treatment of enzyme: no, reaction time 3 h",44.6%
same,Decomposition efficiency of genistin family in defatted soybean,"pH5.4, heat treatment of enzyme: no, reaction time 6 h",39.7%
same,Decomposition efficiency of genistin family in defatted soybean,"pH5.4, heat treatment of enzyme: yes, reaction time 6 h",45.8%
same,Decomposition efficiency of genistin family in soymilk,"pH6.2, heat treatment of enzyme: no, reaction time 0 h",58.6%
same,Decomposition efficiency of genistin family in soymilk,"pH6.2, heat treatment of enzyme: no, reaction time 1 h",52.6%
same,Decomposition efficiency of genistin family in soymilk,"pH6.2, heat treatment of enzyme: no, reaction time 3 h",41.2%
same,Decomposition efficiency of genistin family in soymilk,"pH6.2, heat treatment of enzyme: no, reaction time 6 h",35.8%
same,Decomposition efficiency of genistin family in soymilk,"pH6.2, heat treatment of enzyme: yes, reaction time 6 h",51.5%
same,Decomposition efficiency of genistin family in roasted soy flour,"pH6.5, heat treatment of enzyme no, reaction time 0 h",not detected
same,Decomposition efficiency of genistin family in roasted soy flour,"pH6.5, heat treatment of enzyme no, reaction time 1 h",not detected
same,Decomposition efficiency of genistin family in roasted soy flour,"pH6.5, heat treatment of enzyme no, reaction time 3 h",not detected
same,Decomposition efficiency of genistin family in roasted soy flour,"pH6.5, heat treatment of enzyme no, reaction time 6 h",not detected
same,Decomposition efficiency of genistin family in roasted soy flour,"pH6.5, heat treatment of enzyme yes, reaction time 6 h",not detected
same,Decomposition efficiency of genistin family in concentrated soybean protein,[6],not detected
same,Decomposition efficiency of genistin family in defatted soybean,[6],47.1%
same,Decomposition efficiency of genistin family in concentrated soybean protein,[7],not detected
same,Decomposition efficiency of genistin family in defatted soybean,[7],50.1%
same,Decomposition efficiency of genistin family in concentrated soybean protein,[8],not detected
same,Decomposition efficiency of genistin family in defatted soybean,[8],48.3%
same,Decomposition efficiency of genistin family in concentrated soybean protein,[9],not detected
same,Decomposition efficiency of genistin family in defatted soybean,[9],46.1%
same,Decomposition efficiency of genistin family in concentrated soybean protein,[10],not detected
same,Decomposition efficiency of genistin family in defatted soybean,[10],45.7%
same,Decomposition efficiency of genistin family in soymilk,"pH7.2, heat treatment of enzyme: no, reaction time 0 h",57.0%
same,Decomposition efficiency of genistin family in soymilk,"pH7.2, heat treatment of enzyme: no, reaction time 1 h",56.9%
same,Decomposition efficiency of genistin family in soymilk,"pH7.2, heat treatment of enzyme: no, reaction time 3 h",51.5%
same,Decomposition efficiency of genistin family in soymilk,"pH7.2, heat treatment of enzyme: no, reaction time 6 h",46.4%
same,Decomposition efficiency of genistin family in soymilk,"pH7.2, heat treatment of enzyme: yes, reaction time 6 h",51.1%
same,Decomposition efficiency of genistin family in defatted soybean,"pH7.8, heat treatment of enzyme: no, reaction time 0 h",45.8%
same,Decomposition efficiency of genistin family in defatted soybean,"pH7.8, heat treatment of enzyme: no, reaction time 1 h",46.6%
same,Decomposition efficiency of genistin family in defatted soybean,"pH7.8, heat treatment of enzyme: no, reaction time 3 h",44.4%
same,Decomposition efficiency of genistin family in defatted soybean,"pH7.8, heat treatment of enzyme: no, reaction time 6 h",42.2%
same,Decomposition efficiency of genistin family in defatted soybean,"pH7.8, heat treatment of enzyme: yes, reaction time 6 h",39.9%
same,Decomposition efficiency of genistin family in roasted soy flour,"pH8.5, heat treatment of enzyme no, reaction time 0 h",not detected
same,Decomposition efficiency of genistin family in roasted soy flour,"pH8.5, heat treatment of enzyme no, reaction time 1 h",not detected
same,Decomposition efficiency of genistin family in roasted soy flour,"pH8.5, heat treatment of enzyme no, reaction time 3 h",not detected
same,Decomposition efficiency of genistin family in roasted soy flour,"pH8.5, heat treatment of enzyme no, reaction time 6 h",not detected
same,Decomposition efficiency of genistin family in roasted soy flour,"pH8.5, heat treatment of enzyme yes, reaction time 6 h",not detected
same,Decomposition efficiency of genistin family in concentrated soybean protein,"pH8.6, heat treatment of enzyme: no, reaction time 0 h",not detected
same,Decomposition efficiency of genistin family in concentrated soybean protein,"pH8.6, heat treatment of enzyme: no, reaction time 1 h",not detected
same,Decomposition efficiency of genistin family in concentrated soybean protein,"pH8.6, heat treatment of enzyme: no, reaction time 3 h",not detected
same,Decomposition efficiency of genistin family in concentrated soybean protein,"pH8.6, heat treatment of enzyme: no, reaction time 6 h",not detected
same,Decomposition efficiency of genistin family in concentrated soybean protein,"pH8.6, heat treatment of enzyme: yes, reaction time 6 h",not detected
same,Decomposition efficiency of genistin family in soymilk,"pH11.6, heat treatment of enzyme: no, reaction time 0 h",54.2%
same,Decomposition efficiency of genistin family in soymilk,"pH11.6, heat treatment of enzyme: no, reaction time 1 h",57.7%
same,Decomposition efficiency of genistin family in soymilk,"pH11.6, heat treatment of enzyme: no, reaction time 3 h",52.6%
same,Decomposition efficiency of genistin family in soymilk,"pH11.6, heat treatment of enzyme: no, reaction time 6 h",49.5%
same,Decomposition efficiency of genistin family in soymilk,"pH11.6, heat treatment of enzyme: yes, reaction time 6 h",47.7%
